Converted amounts (≈) assume the structure as drawn.
test system: Mycobacterium tuberculosis H37Rv; assay: In vitro assay for antimicrobial susceptibility (microplate Alamar blue, MIC); type: cell-based; details: Mycobacterium tuberculosis, H37RV, read-out: MIC (μg/mL) against H37Rv

`CC(=O)NC[C@H]1CN(c2cc(F)c(N3CCCSCCC3)c(F)c2)C(=O)O1` [OBD-027] and `CC(=O)NC[C@H]1CN(c2ccc(N3[C@@H]4CC[C@H]3C[S+]([O-])C4)c(F)c2)C(=O)O1` (stereo partly drawn) [OTB-503, N-(((5S)-3-(3-Fluoro-4-((1R,5S)-3-oxido-3-thia-8-azabicyclo[3.2.1]octan-8-yl)phenyl)-2-oxo-oxazolidin-5-yl)methyl)acetamide] cannot be ordered by MIC: 0.3 µg/mL (≈ 0.751 µM) for the first, 0.2 to 1.3 µg/mL (≈ 0.506 to 3.29 µM) for the second.

First: O=C1O[C@@H](Cn2ccnn2)CN1c1ccc(N2[C@@H]3CC[C@H]2C[S+]([O-])C3)c(F)c1 (stereo partly drawn) [OTB-505, (5R)-5-((1H-1,2,3-Triazol-1-yl)methyl)-3-(3-fluoro-4-((1R,5S)-3-oxido-3-thia-8-azabicyclo[3.2.1]octan-8-yl)phenyl)oxazolidin-2-one]
Second: O=C1O[C@@H](Cn2cncn2)CN1c1ccc(N2[C@@H]3CC[C@H]2C[S+]([O-])C3)c(F)c1 (stereo partly drawn) [OBD-018, (5R)-5-((1H-1,2,4-Triazol-1-yl)methyl)-3-(3-fluoro-4-((1R,5S)-3-oxido-3-thia-8-azabicyclo[3.2.1]octan-8-yl)phenyl)oxazolidin-2-one]
The MIC of the first is lower: 1.8 to 3.5 µg/mL (≈ 4.44 to 8.63 µM) for the first, greater than 32 µg/mL for the second.

Compared with `O=C1O[C@@H](Cn2cncn2)CN1c1ccc(N2C3CCC2CSC3)c(F)c1` [OBD-021, (5R)-5-((1H-1,2,4-triazol-1-yl)methyl)-3-(4-(3-thia-8-aza-bicyclo[3.2.1]octan-8-yl)-3-fluorophenyl)oxazolidin-2-one], `CS(=O)(=O)NC[C@H]1CN(c2ccc(N3[C@@H]4CC[C@H]3CSC4)c(F)c2)C(=O)O1` [OTB-236, N—(((R)-3-(4-((1R,5S)-3-Thia-8-azabicyclo[3.2.1]octan-8-yl)-3-fluorophenyl)-2-oxo-oxazolidin-5-yl)methyl)methanesulfonamide] is 1.9-fold lower in MIC: 27.5 µg/mL (≈ 70.5 µM) for the first, 14.3 µg/mL (≈ 34.3 µM) for the second.

same assay, conditions: Mycobacterium tuberculosis; M. tuberculosis H37Rv, 7H9 broth, Alamar blue; read-out: MIC (μg/mL) against H37Rv

First: O=C1O[C@@H](CO)CN1c1ccc(N2CC3(COC3)C2)c(F)c1 [OTB-201, (R)-3-(3-Fluoro-4-(2-oxa-6-azaspiro[3.3]heptan-6-yl)phenyl)-5-(hydroxymethyl)oxazolidin-2-one]
Second: O=C(NC[C@H]1CN(c2ccc(N3CC4(COC4)C3)c(F)c2)C(=O)O1)c1ccco1 [OTB-205, (S)—N-((3-(3-Fluoro-4-(2-oxa-6-azaspiro[3.3]heptan-6-yl)phenyl)-2-oxo-oxazolidin-5-yl)methyl)furan-2-carboxamide]
The MIC of the first is 4.1-fold higher: 16 µg/mL (≈ 51.9 µM) for the first, 3.9 µg/mL (≈ 9.72 µM) for the second.

Compared with `O=C1O[C@@H](Cn2ccnn2)CN1c1cc(F)c(N2CC3(COC3)C2)c(F)c1` [OTB-234, (R)-5-((1H-1,2,3-Triazol-1-yl)methyl)-3-(3,5-difluoro-4-(2-oxa-6-azaspiro[3.3]heptan-6-yl)phenyl)oxazolidin-2-one], `NC[C@H]1CN(c2cc(F)c(N3CC4(COC4)C3)c(F)c2)C(=O)O1` [OBD-062] is lower in MIC: 0.39 to 4 µg/mL (≈ 1.03 to 10.6 µM) for the first, 0.1 to 0.25 µg/mL (≈ 0.307 to 0.768 µM) for the second.

First: CCCC(=O)NC[C@H]1CN(c2cc(F)c(N3CCCSCCC3)c(F)c2)C(=O)O1 [OBD-026, (S)—N-((3-(3,5-difluoro-4-(1,5-thiazocan-5-yl)phenyl)-2-oxooxazolidin-5-yl)methyl) butyramide]
Second: O=C(NC[C@H]1CN(c2ccc(N3CCCSCC3)c(F)c2)C(=O)O1)C1CCC1 [OTB-414, (S)—N-((3-(3-Fluoro-4-(1,4-thiazepan-4-yl)phenyl)-2-oxooxazolidin-5-yl)methyl)cyclobutanecarboxamide]
The MIC of the first is 2.3-fold higher: 0.4 µg/mL (≈ 0.936 µM) for the first, 0.171 µg/mL (≈ 0.42 µM) for the second.

`O=C(NC[C@H]1CN(c2ccc(N3CC4(CSC4)C3)c(F)c2)C(=O)O1)C1CCC1` [OTB-250] and `O=C(NC[C@H]1CN(c2ccc(N3CC4(CSC4)C3)c(F)c2)C(=O)O1)C1CC1` [OTB-249] cannot be ordered by MIC: 0.06 µg/mL (≈ 0.148 µM) for the first, 0.06 to 0.15 µg/mL (≈ 0.153 to 0.383 µM) for the second.

Compared with `CC(=O)NC[C@H]1CN(c2ccc(N3CCC[S+]([O-])CCC3)c(F)c2)C(=O)O1` [OTB-124, (S)—N-[[3-(3-Fluoro-4-(1-oxido-1,5-thiazocan-5-yl)phenyl)-2-oxo-oxazolidin-5-yl]methyl]acetamide], `CNC[C@H]1CN(c2ccc(N3CCCSCC3)c(F)c2)C(=O)O1` [OTB-109, (S)-3-[3-Fluoro-4-(1,4-thiazepan-4-yl)phenyl]-5-[(methylamino)methyl]oxazolidin-2-one] is higher in MIC: 0.26 to 1.4 µg/mL (≈ 0.654 to 3.52 µM) for the first, 32 µg/mL (≈ 94.3 µM) for the second.
